US20110158980A1, “METHODS TO TREAT AND SCREEN FOR AGENTS TO TREAT OBESITY” (TRUSTEES OF TUFTS COLLEGE, priority 2008, published 2011)

Test system: 3T3-L1 adipocytes
Assay: Metabolic flux analysis (stoichiometric model) of adipocyte intermediary metabolism
Format: cell-based
Protocol: 3T3-L1 preadipocytes were plated onto 24-well plates and expanded in preadipocyte growth medium consisting of DMEM supplemented with calf serum (10% v/v), penicillin and streptomycin. Medium was replenished every other day. Two days post-confluence, the cells were induced to differentiate using an adipogenic cocktail (1 μg/ml insulin, 0.5 mM isobutylmethylxanthine, and 1 μM dexamethasone) added to a basal medium (DMEM with 10% fetal bovine serum and penicillin/streptomycin). After 48 hrs, the first medium was replaced with a second induction medium consisting of the basal adipocyte medium supplemented with only insulin. […] This basal medium was replenished every other day during the remainder of the culture experiments.
A stoichiometric model of adipocyte central carbon metabolism was constructed as described previously (Si Y, Yoon J, Lee K. American journal of physiology 2007; 292:E1637-46). The model consisted of the major pathways of central carbon metabolism (Table 1). Intracellular fluxes were estimated by solving a constrained non-linear optimization problem with stoichiometric and thermodynamic constraints (Nolan R P, Fenley A P, Lee K. Metab Eng 2006; 8:30-45).

[1] = PA 10 mM, day 12 post-induction

## O=C(O)Cc1ccccc1 [phenylacetate]
PA 5 mM, day 12 post-induction
  Flux RXN 65 Mitochondrial exchange: 2-Oxoglutarate in, Malate out: 36.9 ± 7.3 mmol/g-DNA/2 days
  Flux RXN 66 Mitochondrial exchange: Pi in, Malate out: 79.9 ± 9.7 mmol/g-DNA/2 days
[1]
  Flux RXN 1 Glycolysis: Glucose + ATP = Glucose 6-P + ADP: 341.0 ± 14.4 mmol/g-DNA/2 days
  Flux RXN 3 Glycolysis: Fructose 6-P + ATP = Glyceraldehyde 3-P + Glycerone-P + ADP: 332.9 ± 13.7 mmol/g-DNA/2 days
  Flux RXN 4 Glycolysis: Glycerone-P = Glyceraldehyde 3-P: 309.4 ± 13.0 mmol/g-DNA/2 days
  Flux RXN 5 Glycolysis: Glyceraldehyde 3-P + NAD+ + ADP + Pi = P-Enolpyruvate + ATP + H2O: 650.5 ± 26.0 mmol/g-DNA/2 days
  Flux RXN 6 Glycolysis: P-Enolpyruvate + ADP + H+ = Pyruvate + ATP: 725.6 ± 35.8 mmol/g-DNA/2 days
  Flux RXN 7 Glycolysis: Pyruvate + NADH + H+ = Lactate + NAD+: 427.8 ± 9.4 mmol/g-DNA/2 days
  Flux RXN 8 Pentose phosphate pathway: Glucose 6-P + 2 NADP+ + H2O = Ribulose 5-P + CO2 + 2 NADPH + 2 H+: 24.3 ± 18.5^ mmol/g-DNA/2 days
  Flux RXN 9 Pentose phosphate pathway: 3 Ribulose 5-P = 2 Fructose 6-P + Glyceraldehyde 3-P: 8.1 ± 6.2^ mmol/g-DNA/2 days
  Flux RXN 10 TCA cycle (mitochondria) (PDC): 233.7 ± 25.1 mmol/g-DNA/2 days
  Flux RXN 12 TCA cycle (mitochondria): 132.2 ± 19.3 mmol/g-DNA/2 days
  Flux RXN 13 TCA cycle (mitochondria): 158.6 ± 26.1 mmol/g-DNA/2 days
  Flux RXN 14 TCA cycle (mitochondria): 169.9 ± 26.6 mmol/g-DNA/2 days
  Flux RXN 15 TCA cycle (mitochondria): 170.1 ± 27.0 mmol/g-DNA/2 days
  Flux RXN 16 TCA cycle (mitochondria): 110.2 ± 17.8 mmol/g-DNA/2 days
  Flux RXN 17 TCA cycle: Citrate + CoA + ATP = Acetyl-CoA + Oxaloacetate + ADP + Pi: 75.1 ± 16.4 mmol/g-DNA/2 days
  Flux RXN 18 TCA cycle: Oxaloacetate + NADH + H+ = Malate + NAD+: 0.0 ± 0.0^ mmol/g-DNA/2 days
  Flux RXN 19 TCA cycle: Malate + NADP+ = Pyruvate + CO2 + NADPH: 59.9 ± 9.2 mmol/g-DNA/2 days
  Flux RXN 20 TCA cycle: Citrate + NADP+ = 2-Oxoglutarate + CO2 + NADPH + H+: 26.4 ± 6.9 mmol/g-DNA/2 days
  Flux RXN 21 TCA cycle: Oxaloacetate + ATP = P-Enolpyruvate + CO2 + ADP: 75.1 ± 16.4 mmol/g-DNA/2 days
  Flux RXN 22 Oxidative phosphorylation (NADH + 0.5 O2): 213.9 ± 89.2 mmol/g-DNA/2 days
  Flux RXN 23 Oxidative phosphorylation (FADH2 + 0.5 O2): 189.1 ± 27.3 mmol/g-DNA/2 days
  Flux RXN 24 Palmitate biosynthesis: 9.4 ± 2.0 mmol/g-DNA/2 days
  Flux RXN 25 Tripalmitoylglycerol biosynthesis: Glycerone-P + 3 Palmitate to Tripalmitoylglycerol: 23.5 ± 3.0 mmol/g-DNA/2 days
  Flux RXN 26 Tripalmitoylglycerol + 3 H2O = Glycerol + 3 Palmitate: 20.6 ± 2.4 mmol/g-DNA/2 days
  Flux RXN 27 Tripalmitoylglycerol accumulation: 2.9 ± 0.6 mmol/g-DNA/2 days
  Flux RXN 28 Metabolism of ketone bodies: 7.8 ± 0.2 mmol/g-DNA/2 days
  Flux RXN 29 Metabolism of ketone bodies: 0.0 ± 0.0^ mmol/g-DNA/2 days
  Flux RXN 30 Metabolism of ketone bodies (to 3-Hydroxybutyrate): 15.9 ± 0.7 mmol/g-DNA/2 days
  Flux RXN 31 Amino acid metabolism: Pyruvate + NH4+ + NADPH = Alanine: 0.5 ± 0.1 mmol/g-DNA/2 days
  Flux RXN 32 Amino acid metabolism: Aspartate + NH4+ = Asparagine: 2.9 ± 0.2 mmol/g-DNA/2 days
  Flux RXN 33 Amino acid metabolism: Aspartate = Oxaloacetate + NH4+ + NADH: 0.0 ± 0.0^ mmol/g-DNA/2 days
  Flux RXN 34 Amino acid metabolism: Cysteine = Pyruvate + NH4+ + NADH: 0.0 ± 0.0^ mmol/g-DNA/2 days
  Flux RXN 35 Amino acid metabolism: Glutamate = 2-Oxoglutarate + NH4+ + NADH: 0.0 ± 0.0 mmol/g-DNA/2 days
  Flux RXN 36 Amino acid metabolism: Glutamate + NH4+ + ATP = Glutamine: 0.0 ± 0.0 mmol/g-DNA/2 days
  Flux RXN 37 Amino acid metabolism: Serine + THF = Glycine: 6.2 ± 0.4^ mmol/g-DNA/2 days
  Flux RXN 38 Amino acid metabolism: Histidine + THF = Glutamate + NH4+: 0.5 ± 0.1 mmol/g-DNA/2 days
  Flux RXN 39 Amino acid metabolism: Isoleucine + 2 CoA: 7.5 ± 0.2 mmol/g-DNA/2 days
  Flux RXN 40 Amino acid metabolism: Leucine + CoA + CO2 + ATP: 7.9 ± 0.2 mmol/g-DNA/2 days
  Flux RXN 41 Amino acid metabolism: Lysine = 2-Oxoadipate + 2 NH4+ + 3 NADH: 0.0 ± 0.0^ mmol/g-DNA/2 days
  Flux RXN 42 Amino acid metabolism: 2-Oxoadipate + CoA: 0.0 ± 0.0^ mmol/g-DNA/2 days
  Flux RXN 43 Amino acid metabolism: Methionine + Serine + ATP + CoA + THF: 0.0 ± 0.0^ mmol/g-DNA/2 days
  Flux RXN 44 Amino acid metabolism: Phenylalanine + O2 + NADH = Tyrosine: 0.1 ± 0.3^ mmol/g-DNA/2 days
  Flux RXN 45 Amino acid metabolism: Glutamate + ATP + 2 NADPH = Proline: 1.5 ± 0.1 mmol/g-DNA/2 days
  Flux RXN 46 Amino acid metabolism: Serine = Pyruvate + NH4+: 0.0 ± 0.0^ mmol/g-DNA/2 days
  Flux RXN 47 Amino acid metabolism: Threonine + CoA to Glycine: 0.2 ± 0.2 mmol/g-DNA/2 days
  Flux RXN 48 Amino acid metabolism: Tryptophan + 3 O2 + NADPH = 2-Oxoadipate + Alanine + CO2 + NH4+: 0.0 ± 0.0^ mmol/g-DNA/2 days
  Flux RXN 49 Amino acid metabolism: Tyrosine + 2 O2: 0.2 ± 0.5^ mmol/g-DNA/2 days
  Flux RXN 50 Amino acid metabolism: Valine + CoA: 3.8 ± 0.4 mmol/g-DNA/2 days
  Flux RXN 51 Plasma exchange: Palmitate: 0.8 ± 0.1 mmol/g-DNA/2 days
  Flux RXN 52 Plasma exchange: Acetoacetate: 0.0 ± 0.1 mmol/g-DNA/2 days
  Flux RXN 53 Plasma exchange: Alanine: 0.5 ± 0.1 mmol/g-DNA/2 days
  Flux RXN 54 Plasma exchange: Aspartate: 2.9 ± 0.2 mmol/g-DNA/2 days
  Flux RXN 55 Plasma exchange: Cysteine: 0.0 ± 0.0^ mmol/g-DNA/2 days
  Flux RXN 56 Plasma exchange: Glutamate: 0.9 ± 0.1 mmol/g-DNA/2 days
  Flux RXN 57 Plasma exchange: Glycine: 6.4 ± 0.4 mmol/g-DNA/2 days
  Flux RXN 58 Plasma exchange: Serine: 6.2 ± 0.4^ mmol/g-DNA/2 days
  Flux RXN 59 Plasma exchange: Tyrosine: 0.1 ± 0.2^ mmol/g-DNA/2 days
  Flux RXN 60 Plasma exchange: O2 (calculated oxygen uptake rate): 202.1 ±59.1 *^ mmol/g-DNA/2 days
  Flux RXN 61 Plasma exchange: CO2: 582.8 ± 66.5 mmol/g-DNA/2 days
  Flux RXN 62 Plasma exchange: NH4+: 16.5 ± 1.3 mmol/g-DNA/2 days
  Flux RXN 63 Mitochondrial exchange: Pyruvate: 357.2 ± 37.5 mmol/g-DNA/2 days
  Flux RXN 64 Mitochondrial exchange: Malate in, Citrate out: 101.5 ± 16.0 mmol/g-DNA/2 days
  Flux RXN 65 Mitochondrial exchange: 2-Oxoglutarate in, Malate out: 26.4 ± 6.9 mmol/g-DNA/2 days
  Flux RXN 66 Mitochondrial exchange: Pi in, Malate out: 59.9 ± 9.2 mmol/g-DNA/2 days
phenylacetate
  Decrease of flux through phosphoenolpyruvate carboxykinase: 40%
  Reduction of de novo fatty acid synthesis: ~40%
  Reduction of triglyceride accumulation: 40%
Phenylacetate (5 and 10 mM), day 12 post-induction
  Increase of flux through glycolysis: 15˜60%
Phenylacetate at the higher concentration (10 mM)
  Decrease of total flux of pyruvate into the mitochondrial reactions: 29%
phenylacetate, noted only for the 5 mM condition
  Decrease of flux through the PPP: 83%
phenylacetate, higher concentration having the larger effect
  Increase of fluxes through other lipogenic reactions (including esterification): 64˜75%
